Experiment [1] in a line: HepG2 cell cytotoxicity, dose response, cytotoxicity control, cherry-picked samples (AID 1159577). It counts as functional, cell-based.
Experiment [2] can be described thus: HepG2 cell cytotoxicity, dose response, cytotoxicity control, plate reader, dry powder samples (AID 1159569).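 Also: inhibitor potency with signal falling toward the positive control level.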 It counts as functional, cell-based.
Experiment [3] in a line: P. falciparum Dd2 growth inhibitors, dose response, SYBR Green, cherry-picked samples (AID 1159567). It counts as functional, cell-based.
Experiment [4] is described as follows: P. falciparum 3D7-ScDHODH growth inhibitors, dose response, SYBR Green, dry powder samples (AID 1159570).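 Also: parasite growth measured after 72 hours of compound exposure.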 It counts as functional, cell-based.
Experiment [5] is described as follows: YAP1 pathway inhibition via CTGF transcript levels, dose response, cell-based, DLD1 colon cancer, RT-qPCR, cherry-pick (AID 1053122). Particulars: Cancer cell lines. In kind it is functional. (Quantitative PCR measures a nucleic acid by following its amplification.)
A short description of experiment [6]: P. falciparum Dd2 growth inhibitors, dose response, SYBR Green, dry powder samples (AID 1159566).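 Also: potency for growth inhibition with lower SYBR green DNA signal.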 It counts as functional, cell-based.
Experiment [7] can be described thus: P. falciparum ATP4 D1247Y mutant growth inhibitors, dose response, NITD609-resistant line, SYBR Green, dry powder (AID 1159571).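 Also: parasites synchronized at ring stage by sorbitol before testing.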 It counts as functional, cell-based.
A short description of experiment [8]: Mycobacterium tuberculosis BioA enzyme inhibitor Measured in Biochemical System Using Plate Reader - 2163-02_Inhibitor_Dose_DryPowder_Activity.
A short description of experiment [9]: cytotoxicity in HeLa cells, dose response, cytotoxicity control, cell-based, 24 h, dry powder, set 2 (AID 651774). In kind it is functional.
A short description of experiment [10]: HeLa cell cytotoxicity, dose response, cytotoxicity control, 24 h, plate reader, powder samples, set 3 (AID 651864). It counts as functional, cell-based.
Experiment [11] is described as follows: HEK293T cell cytotoxicity, dose response, cytotoxicity control, CellTiter-Glo luminescence, dry powder, set 6 (AID 651949). It counts as functional, cell-based. To be noted: HEK293. A general note: ATP-based viability assays read luminescence as a measure of living cells.
Experiment [12] is described as follows: growth inhibition of replicating M. tuberculosis, dose response, counter-screen, dry powder, IC90 (AID 651617). In kind it is functional. Particulars: Mycobacterium tuberculosis. A general note: Counterscreens check selectivity or assay interference.
Experiment [13] can be described thus: inhibitors of non-replicating M. tuberculosis, dose response, luciferase, dry powder (AID 651620). It counts as functional. Particulars: Mycobacterium tuberculosis.
Experiment [14] can be described thus: inhibitors of non-replicating M. tuberculosis, dose response, luciferase, dry powder (AID 651619). To be noted: Mycobacterium tuberculosis. In kind it is functional.
The nature of experiment [15]: cytotoxicity in HeLa cells, dose response, cytotoxicity control, cell-based, plate reader, dry powder (AID 651946). It counts as functional.
Experiment [16] can be described thus: SK-MEL-5 parental cell viability reduction, dose response, orthogonal assay for MITF inhibitor project, CellTiter-Glo luminescence, dry powder, set 8 (AID 651586). It counts as functional, cell-based.
Experiment [17] in a line: A375 melanoma cell viability loss, dose response, counter-screen for MITF modulator project, CellTiter-Glo luminescence, dry powder, set 9 (AID 651591). It counts as functional, cell-based. To be noted: A-375.
The nature of experiment [18]: TRPM1 promoter luciferase reporter signal decrease, dose response, MITF inhibitor project, cell-based, SK-MEL-5, dry powder, set 8 (AID 624430). It counts as functional.
Experiment [19] in a line: MALME3 melanoma cell viability reduction, dose response, orthogonal assay for MITF inhibitor project, CellTiter-Glo luminescence, dry powder, set 5 (AID 651584). In kind it is functional, cell-based. Particulars: MALME-3.
The nature of experiment [20]: MITF Orthogonal Assay: SK-MEL-5 CTG Assay Measured in Cell-Based System Using Plate Reader - 2084-02_Inhibitor_Dose_DryPowder_Activity_Set7. It counts as functional.
A short description of experiment [21]: MITF Orthogonal Assay: MALME3 CTG Assay Measured in Cell-Based System Using Plate Reader - 2084-04_Inhibitor_Dose_DryPowder_Activity_Set6. In kind it is functional. To be noted: MALME-3.
Experiment [22] is described as follows: cytotoxicity in primary human melanocytes, dose response, cytotoxicity control, cell-based, plate reader, dry powder (AID 651920). It counts as functional.
Experiment [23] can be described thus: MITF: Counter assay: A375 proliferation Measured in Cell-Based System Using Plate Reader - 2084-03_Inhibitor_Dose_DryPowder_Activity_Set8. It counts as functional. To be noted: A-375.
Experiment [24] can be described thus: P. falciparum Dd2 growth inhibitors, dose response, SYBR Green, dry powder samples, set 9 (AID 1159568). In kind it is functional, cell-based.
Experiment [25] is described as follows: cytotoxicity in HEK293 cells, dose response, cytotoxicity control, cell-based, cherry-picked samples (AID 1053185). It counts as functional.
Experiment [26] can be described thus: Late stage assay provider results from the probe development effort to identify selective inhibitors of heat shock protein 90 (HSP90): Absorbance-based cell proliferation assay in MCF7 cells. In kind it is functional.
A short description of experiment [27]: Late stage assay provider results from the probe development effort to identify selective inhibitors of heat shock protein 90 (HSP90): Absorbance-based cell proliferation assay in SKBR3 cells. It counts as functional. Particulars: SK-BR-3.
The nature of experiment [28]: inhibitors of fibronectin matrix deposition, dose response, AH1F cells, Alexa488-FN fluorescence, cherry-picks (AID 1035475). It counts as functional, cell-based.
For another experiment, the target named is Beta Lactamase (Pseudomonas aeruginosa, UniProt Q932Y6). The experiment is described as follows: beta-lactamase reporter inhibitor potency, dose response, artefact control for TLR9-MyD88 binding inhibitor project, BLA reporter cells, FRET fluorescence (AID 588341).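 Also: cell based assay in CHO-K1 cells stably expressing beta-lactamase.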 In kind it is cell-based.
Chain of Beta Lactamase (Q932Y6 whole entry, the tested form may be a part): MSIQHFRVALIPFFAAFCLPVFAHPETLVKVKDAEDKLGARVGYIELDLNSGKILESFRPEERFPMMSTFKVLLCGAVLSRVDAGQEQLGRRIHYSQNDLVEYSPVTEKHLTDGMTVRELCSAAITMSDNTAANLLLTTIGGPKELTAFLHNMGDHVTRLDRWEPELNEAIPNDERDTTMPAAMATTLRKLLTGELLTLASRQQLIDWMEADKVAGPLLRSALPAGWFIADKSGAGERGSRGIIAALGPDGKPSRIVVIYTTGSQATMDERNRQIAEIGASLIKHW
For experiment [29], the target named is Photoreceptor-specific nuclear receptor (Homo sapiens, UniProt Q9Y5X4). It counts as functional, cell-based.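 Also: CHO-S cells with Gal4-NCOR and VP16-NR2E3 two-hybrid luciferase reporter.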
Chain of Photoreceptor-specific nuclear receptor (Q9Y5X4 whole entry, the tested form may be a part): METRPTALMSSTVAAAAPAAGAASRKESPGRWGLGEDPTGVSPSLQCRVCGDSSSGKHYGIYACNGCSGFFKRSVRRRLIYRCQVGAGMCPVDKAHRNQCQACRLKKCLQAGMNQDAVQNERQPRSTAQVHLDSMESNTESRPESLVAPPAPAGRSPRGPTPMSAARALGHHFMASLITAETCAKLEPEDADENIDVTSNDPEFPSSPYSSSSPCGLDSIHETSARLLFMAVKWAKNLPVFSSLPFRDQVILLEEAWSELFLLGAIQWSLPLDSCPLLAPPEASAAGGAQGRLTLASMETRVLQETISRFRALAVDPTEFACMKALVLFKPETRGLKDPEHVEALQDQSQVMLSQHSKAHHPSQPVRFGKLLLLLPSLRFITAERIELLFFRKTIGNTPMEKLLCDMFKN
For a further experiment, the system named is CHO. The experiment is described as follows: cytotoxicity in TLR9-MyD88 CHO cells, dose response, cytotoxicity control for TLR9-MyD88 binding inhibitor project, cell-based, luminescence (AID 588339).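 Also: CHO cells stably coexpressing TLR9 and MyD88 fusions from primary screen; compound exposure lasted 48 hours before viability readout.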 In kind it is functional, hamster. To be noted: Cricetulus griseus.
Experiment [30] in a line: Late stage assay provider counterscreen for TLR9 inhibitors: absorbance-based cell-based MTT cytotoxicity assay. It counts as functional.
The nature of experiment [31]: Late stage assay provider results from the probe development effort to identify inhibitors of the Plasmodium falciparum M18 Aspartyl Aminopeptidase (M18AAP): radiolabel-based cell-based dose response assay to identify compounds that inhibit P. falciparum growth in RBCs, Set 2.. In kind it is functional.
Experiment [32] in a line: cytotoxicity in COV434 cells, dose response, cytotoxicity control for PAX8 inhibitor project, cell-based, plate reader, dry powder, SA7 (AID 743145). It counts as functional.
Experiment [33] can be described thus: IGROV1 ovarian cancer cell cytotoxicity, dose response, PAX8 inhibitor project, plate reader, dry powder samples (AID 743043). In kind it is functional, cell-based. Particulars: IGROV-1.
A short description of experiment [34]: cytotoxicity in OVCAR4 cells, dose response, cytotoxicity control for PAX8 inhibitor project, cell-based, plate reader, dry powder, SA11 (AID 743150). In kind it is functional. Particulars: OVCAR-4.
Experiment [35] is described as follows: cytotoxicity dependent on PAX8, dose response, cell-based, plate reader, dry powder (AID 743049). In kind it is functional.
In the next experiment the target is Paired box protein Pax-8 (Homo sapiens, UniProt Q06710). The experiment is described as follows: inhibitors of PAX8-driven TPO luciferase reporter, dose response, RMG-I cells, cherry-pick (AID 687027).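 Also: luciferase reporter driven by Pax8 target thyroperoxidase promoter measured by SteadyGlo luminescence.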 In kind it is functional, cell-based.
Chain of Paired box protein Pax-8 (Q06710 whole entry): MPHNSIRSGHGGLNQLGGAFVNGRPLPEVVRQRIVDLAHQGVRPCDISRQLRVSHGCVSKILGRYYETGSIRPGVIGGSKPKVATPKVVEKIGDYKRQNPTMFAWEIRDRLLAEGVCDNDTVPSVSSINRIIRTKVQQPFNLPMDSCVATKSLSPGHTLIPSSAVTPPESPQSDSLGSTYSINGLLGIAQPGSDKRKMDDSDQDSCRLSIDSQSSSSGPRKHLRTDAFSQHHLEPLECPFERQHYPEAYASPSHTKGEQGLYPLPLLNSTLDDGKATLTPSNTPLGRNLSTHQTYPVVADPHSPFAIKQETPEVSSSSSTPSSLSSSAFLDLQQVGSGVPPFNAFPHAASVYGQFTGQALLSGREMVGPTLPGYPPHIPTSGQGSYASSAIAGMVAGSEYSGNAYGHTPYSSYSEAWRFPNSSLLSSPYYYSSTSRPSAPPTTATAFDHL
In another experiment the target is Beta-galactosidase (Escherichia coli, UniProt Q8VNN2). As to the kind of experiment: Dose response counterscreen for EBI2 assay utilizing the enzyme, b-galactosidase. It counts as functional.
Chain of Beta-galactosidase (Q8VNN2 whole entry): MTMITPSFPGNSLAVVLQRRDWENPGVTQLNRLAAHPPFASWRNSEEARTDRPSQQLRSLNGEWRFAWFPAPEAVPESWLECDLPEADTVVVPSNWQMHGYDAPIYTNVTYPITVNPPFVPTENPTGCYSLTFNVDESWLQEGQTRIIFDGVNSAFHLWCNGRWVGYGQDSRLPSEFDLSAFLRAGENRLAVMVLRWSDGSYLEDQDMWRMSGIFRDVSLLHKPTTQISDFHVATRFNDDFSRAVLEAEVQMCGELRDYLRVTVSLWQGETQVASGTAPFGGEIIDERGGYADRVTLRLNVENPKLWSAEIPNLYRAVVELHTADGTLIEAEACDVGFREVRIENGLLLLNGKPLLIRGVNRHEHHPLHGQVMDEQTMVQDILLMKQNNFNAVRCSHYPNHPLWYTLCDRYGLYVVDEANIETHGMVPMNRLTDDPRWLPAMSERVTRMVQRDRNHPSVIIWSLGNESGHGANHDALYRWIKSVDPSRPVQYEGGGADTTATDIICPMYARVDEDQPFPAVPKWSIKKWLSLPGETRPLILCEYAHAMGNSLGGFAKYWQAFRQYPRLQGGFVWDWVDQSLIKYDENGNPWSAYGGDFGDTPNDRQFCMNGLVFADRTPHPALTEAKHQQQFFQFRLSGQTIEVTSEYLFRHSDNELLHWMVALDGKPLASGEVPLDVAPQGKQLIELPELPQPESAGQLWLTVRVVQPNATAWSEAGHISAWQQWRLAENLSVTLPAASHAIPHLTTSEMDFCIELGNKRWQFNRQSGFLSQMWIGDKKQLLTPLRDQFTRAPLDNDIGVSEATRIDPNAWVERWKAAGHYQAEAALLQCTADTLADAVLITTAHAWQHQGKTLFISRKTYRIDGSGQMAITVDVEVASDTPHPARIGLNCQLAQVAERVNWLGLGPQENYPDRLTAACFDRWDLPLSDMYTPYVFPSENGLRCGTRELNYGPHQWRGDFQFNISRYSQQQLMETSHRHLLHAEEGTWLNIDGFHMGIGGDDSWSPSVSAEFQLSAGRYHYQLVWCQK
Experiment [36] is described as follows: cytotoxicity in OV-90 ovarian cancer cells, dose response, PAX8 inhibitor project, cell-based, plate reader, dry powder, SA8 (AID 743149). In kind it is functional.
Experiment [37] is described as follows: PAX2 cell-based inhibition, dose response, selectivity assay for PAX8 inhibitor project, plate reader, dry powder samples (AID 743048).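 Also: HEK293 cells carrying a WT1 promoter luciferase reporter driven by expressed Pax2; potency is for inhibition of Pax2 driven reporter signal.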 In kind it is functional.
Experiment [38] in a line: cytotoxicity in COV362 ovarian cancer cells, dose response, cytotoxicity control for PAX8 inhibitor project, cell-based, plate reader, dry powder, SA12 (AID 743144). In kind it is functional.
Experiment [39] is described as follows: NIH:OVCAR-3 ovarian cancer cell cytotoxicity, dose response, PAX8 inhibitor project, plate reader, dry powder samples (AID 743044). In kind it is functional, cell-based.

Each structure is given as a SMILES string. Active and inactive are the calls of the source.

Broadly, the AC50 is the concentration giving half of the maximal activity seen. As for `C[C@@H]1CN([C@H](C)CO)C(=O)c2c(c3ccccc3n2C)-c2ccccc2CO[C@@H]1CN(C)Cc1cccc(C(F)(F)F)c1`, the AC50 was 27.2 µM (active) in experiment [1]; 19.6 µM (active) in experiment [2]; 1.87 µM (active) in [3]; 3.38 µM (active) in experiment [4]; 14.3 µM (active) in [5]; 1.28 µM (active) in experiment [6]. Moreover, the concentration at half-maximal activity (AC50) in [7] is 2.09 µM (active).

With `O=C(Nc1cccnc1)N1CCN(c2ccccc2)CC1`, in [8], the AC50 was 13 µM (active).

In the case of `CCC(CC)NC(=O)Cc1ccc(-c2ccccc2)cc1`, the AC50 in [9] is > 70 µM (inactive); in experiment [10], > 160 µM (inactive).

By IC90 is commonly meant the concentration needed for an effect of 90%. `COc1cccc(-c2nnc(SCc3ccccn3)o2)c1`: the AC50 in experiment [11] and in experiment [15] was > 52 µM (inactive) in each case. For the same compound, the IC90 in [12] was 125 µM (active); in experiment [13], 4 µM (active); in experiment [14] it was 4 µM (active).

On to `Cc1ccc(NC2=CC(=O)c3ccccc3C2=O)cc1`, for which the AC50 in [16] was 36.1 µM (active); in [17], > 70 µM (inactive); in experiment [18], 6.58 µM (active); in [19], 13.5 µM (active); in experiment [20] it was 1.24 µM (active); in experiment [21] it was 13.5 µM (active). Moreover, the AC50 in experiment [22] and in [23] was > 70 µM (inactive) throughout.

On to `C[C@H](CO)N1C[C@H](C)[C@@H](CN(C)Cc2ccccc2)Oc2c(NC(=O)Cc3cn(C)c4ccccc34)cccc2C1=O`, for which the AC50 was 1.97 µM (active) in [24] and 40.1 µM (active) in experiment [25].

The term IC50 denotes the concentration needed to halve the response being measured. `O=c1oc2ccc(OCCc3ccc(F)cc3)cc2cc1Br`: the IC50 is > 100 µM (inactive) in experiment [26] and 91.7 µM (inactive) in [27].

For `CC(=O)Nc1cccc(-c2ccnc3c2CC(C)(C(=O)Nc2cccc(C(F)(F)F)c2)O3)c1` (stereo not drawn), the AC50 in experiment [28] was 22.7 µM (active).

Broadly, the CC50 is the concentration that lowers cell viability or growth by half. For `O=S(=O)(/C=C/C=C/S(=O)(=O)c1ccccc1)c1ccccc1`, the values for the IC50 (on Beta Lactamase; in experiment [29]; in the experiment on CHO) were > 49.8 µM (inactive), 1.61 µM (active) and 0.959 µM (active), respectively. In addition, in [30], the CC50 is 0.59 µM (active).

In the case of `COc1ccc(CCNc2ccnc3cc(Cl)ccc23)cc1OC`, the IC50 in experiment [31] was 0.66 µM (active).

Consider `O=C(c1cc(-c2cccs2)on1)N1CCN(C(c2ccccc2)c2ccccc2)CC1`, for which the AC50 in [32] is 80.1 µM (active); in experiment [33], 44.1 µM (active); in [34] it was 44.4 µM (active); in experiment [35], 9.18 µM (active); at Paired box protein Pax-8 it was 0.733 µM (active); in [36], > 100 µM (inactive). In addition, the AC50 was 49.9 µM (active) in experiment [37], 48.4 µM (active) in experiment [38] and 60.2 µM (active) in experiment [39]. In addition, the IC50 at Beta-galactosidase is > 80 µM (inactive).
